SMILES strings stand for the structures. Entries after “also recorded” stand apart in the source; their conditions may differ. Where two headings read alike, the source gives them in different places.

The text below walks through data of PMC10610134, “Verubulin (Azixa) Analogues with Increased Saturation: Synthesis, SAR and Encapsulation in Biocompatible Nanocontainers Based on Ca^2+ or Mg^2+ Cross-Linked Alginate” (Pharmaceuticals, 2023).

Series [1] has as its system human lung epithelial carcinoma cell line A549. The experiment in a line: MTT cytotoxicity assay, A549. Format: cell-based. The settings on record: read-out: IC50, nM A549. The text has this:
(§1) The obtained series of verubulin analogues 2a–r (which also included three by-products isolated in the reactions according to Scheme 2) were initially evaluated for cytotoxicity against commonly used human breast cancer cell line MCF7′ (fast-growth subclone), human lung epithelial carcinoma cell line A549 and etiologically non-cancer immortalized lung fibroblast cell line VA13 (WI38 subline 2RA). Cytotoxicity against immortalized human embryonic kidney cell line HEK293T, characterized by a high growth rate, was also studied regarding cytotoxicity against non-cancerous fast-growth cells. A standard MTT assay was performed; verubulin (1) served as a positive reference. The data obtained are presented in Table 1 (for dose–response curves, see Supplementary Materials).
(§2) Human breast cancer cell line MCF7′ and human lung adenocarcinoma cell line A549 were kindly provided by Dr. S. Dmitriev (Lomonosov Moscow State University), immortalized human fibroblast cell line VA13 (WI38 subline 2RA) was kindly provided by Dr. M. Rubtsova (Lomonosov Moscow State University), human embryonic kidney HEK293T cell line was kindly provided by Dr. E. Knyazhanskaya (Lomonosov Moscow State University). MCF7′, VA13, A549 and HEK293T cell lines were maintained in DMEM/F-12 (Thermo Fisher Scientific, Waltham, MA, USA) culture medium containing 10% fetal bovine serum (Thermo Fisher Scientific, Waltham, MA, USA) and 50 μg/mL penicillin and 0.05 mg/mL streptomycin at 37 °C (Thermo Fisher Scientific, Waltham, MA, USA) in 5% CO2. Cells were maintained at 37 °C in a humidified MCO-18AC incubator (Sanyo, Tokyo, Japan) supplied with 5% CO2. Cell cultures were tested for the absence of mycoplasma and validated by STR.
(§3) The cytotoxicity of the substances was tested using the 3-(4,5-dimethylthiazol-2-yl)2,5-diphenyl tetrazolium bromide (MTT) assay with some modifications. A total of 2500 cells per well for the MCF7′, HEK293T, A549 cell lines or 4000 cells per well for the VA-13 cell line were plated out in 135 μL of DMEM-F12 media (Gibco, Thermo Fisher Scientific, Waltham, MA, USA) in a 96-well plate and incubated in the 5% CO2 incubator for the first 20 h without treatment. Then, 15.8 μL of media–DMSO solutions of tested substances (final DMSO concentrations in the media were 0.5% or less) was added to the cells (triplicate each) and cells were treated for 64 h with 0.023 mg/L–50 mg/L (eight dilutions) of compounds 2f,n,o,r; 1.14 μg/L–2.5 mg/L (eight dilutions) of compounds 2a,b,d,g,h,k,l,p,q; 57.2 ng/L–125 μg/L (eight dilutions) of compounds 2e,i,j; 22.9 ng/L–50 μg/L (eight dilutions) of compounds 1,2c,m. Doxorubicin was used as a control substance. Then, the MTT reagent (Paneco LLC, Moscow, Russia) was added to cells up to a final concentration of 0.5 g/L (10 × stock solution in PBS was used) and incubated for 2 h at 37 °C in the incubator, under an atmosphere of 5% CO2. Then, the MTT solution was discarded, and 140 μL of DMSO (PharmaMed LLC, Moscow, Russia) was added. The plates were swayed on a shaker (120 rpm) to dissolve the formazan. The absorbance was measured using a microplate reader (VICTOR X5 Light Plate Reader, PerkinElmer, Waltham, MA, USA) at a wavelength of 555 nm (in order to measure formazan concentration). The results were used to construct dose–response graphs and to estimate IC50 values (IC50 is the concentration resulting in half of the maximal cytotoxic effect) with GraphPad Prism V, GraphPadSoftware, Inc., San Diego, CA, USA.

The test system of series [2] is immortalized lung fibroblast cell line VA13 (WI38 subline 2RA). The experiment in a line: MTT cytotoxicity assay, VA13. Format: cell-based. The conditions noted are these: Homo sapiens, read-out: IC50, nM VA13.
From the text: as §1, §2, §3

The subject of the next series is HCT116 cells. The experiment in a line: Apoptosis induction, Annexin V / 7-AAD flow cytometry. Format: cell-based, human. The conditions noted are these: for Live (viable cells): human, 48 h. The procedure: Apoptosis is an important and active regulatory pathway of cell growth and proliferation. Annexin V is a calcium-dependent phospholipid-binding protein with a high affinity for phosphatidylserine (PS), a membrane component normally localized to the internal face of the cell membrane. Early in the apoptotic pathway, molecules of PS are translocated to the outer surface of the cell membrane where Annexin V can readily bind them.
After incubation, the cells were harvested by trypsinization, precipitated by centrifugation (3000 rpm), washed with cold PBS and recentrifuged. Aliquots of cells were processed as recommended in the Muse Annexin V& Dead Cell Kit (Luminex Corporation, Austin, TX, USA). The results were recorded on a Muse Cell Analyzer flow cytometer (Merck, Rahway, NJ, USA).

The subject of series [3] is human breast cancer cell line MCF7′. The experiment in a line: MTT cytotoxicity assay, MCF7′. The conditions noted are these: read-out: IC50, nM MCF7′. The format is cell-based.
From the text: as §1, §2, §3

The test system of another series is HCT116 cell line. The experiment in a line: MTT cytotoxicity towards HCT116. The settings on record: HCT-116. Format: cell-based, human.
Series [4] deals with immortalized human embryonic kidney cell line HEK293T. The experiment in a line: MTT cytotoxicity assay, HEK293T. The format is cell-based. The settings on record: HEK-293T, read-out: IC50, nM HEK293T.
From the text: as §1, §2, §3

Series [5] concerns microtubules in carcinoma A549 cells. The experiment in a line: Immunofluorescent microscopy of microtubules. Format: cell-based, human. The settings on record: 24 h, A549. The procedure:
Since verubulin is known to stimulate microtubule disassociation, we performed an immunofluorescent microscopy study to determine the response of microtubule dynamics in carcinoma A549 cells to the treatment with representative compounds 2b,c,e. […] Aberrant cell morphology—contraction and rounding (Figure 2A,B) or contraction and elongation (Figure 2C)—was also observed.
A549 cells were seeded on coverslips (treated with poly-l-lysine at a concentration of 33 mg/L for an hour). Compounds were added up to the corresponding concentration after 24 h attachment and growth of the cells. Then, cells were incubated 24 h.
The cells were fixed with methanol (precooled in liquid nitrogen for 20 min), no additional permeabilization was performed. To prevent non-specific binding, cells were incubated with 4% BSA in PBS for one hour. Then, a solution of mouse monoclonal antibodies against alpha-tubulin cross-linked with Alexa 488 fluoroform (Thermo Fisher Scientific, Waltham, MA, USA, 32-2588) at a concentration of 5 μg/mL in 1% BSA solution in PBS was added to the cells, and the slides were incubated at +5 °C in a water chamber for 24 h. After the end of the incubation time, the cells were washed several times with PBS buffer solution and fixed on a glass slide with Moviol. Next day, cells were imaged with a ZEISS LSM 900 (ZEISS Microscopy, GmbH, Germany) and images processed with ImageJ.

Series [6] concerns MCF7′, A549, VA13, HEK293T cell lines. The experiment in a line: MTT cytotoxicity, SAR statements over the cell line panel. Format: cell-based, human. The settings on record: for selectivity towards tumor cells: pair A549/VA13.
From the text: as §1, §3

The subject of a further series is A549. The settings on record: cited from earlier work.
Series [7] deals with tubulin (Tb) and microtubule-associated proteins (MAPs) from mouse brains. The experiment in a line: Tubulin + MAP polymerization assay. The format is biochemical. The conditions noted are these: GTP-dependent polymerization, read-out: IC50 of tubulin polymerization (initial rates, optical density at 355 nm).
A further series relates to MCF7/MCF10A. Also noted: method as in PMID 36802449. The conditions noted are these: cited from earlier work.
Setting [8] is: HCT116, human colon carcinoma, read-out: IC50.
[9] abbreviates: 2 × IC50, 48 h, HCT116, listed as verubulin (1).

Turning to `COc1ccc(N(C)c2nc(N)nc3c2CCCC3)cc1` [Compound 2i, N^4-(4-Methoxyphenyl)-N^4-methyl-5,6,7,8-tetrahydroquinazolinyl-2,4-diamine], the 50% inhibitory concentration (IC50) in [1] (A549, 64 h treatment, MTT) worked out at 15 ± 2 nM; in [2] (VA-13, 64 h treatment, MTT) it was 6 ± 1.5 nM; in series [3] (MCF7, 64 h treatment, MTT) it was 10.2 ± 1.5 nM; in the series on HCT116 cell line (setting [8]) it was 40 ± 10 nM; in series [4] (64 h treatment, MTT), 9.6 ± 2.2 nM. Also, in the series with HCT116 cells (2 × IC50, 48 h, HCT116), the “Early Apop. (Annexin V (+), 7-AAD (−))” value is given as 46.3%. In addition, the “Live (viable cells)” value in the series on HCT116 cells was found to be 43.99%.
`Cc1nc2c(c(N(C)c3ccccc3)n1)CCCC2` [Compound 2a, N,2-Dimethyl-N-phenyl-5,6,7,8-tetrahydroquinazolin-4-amine] came in with a melting point of 84 to 85 °C. In addition, the 50% inhibitory concentration (IC50) in series [1] (A549, 64 h treatment, MTT) was found to be 2200 ± 260 nM. In addition, the IC50 in series [2] (VA-13, 64 h treatment, MTT) was 1400 ± 180 nM. The half-maximal inhibitory concentration (IC50) in series [3] (MCF7, 64 h treatment, MTT) was determined as 1840 ± 810 nM. The “effect on microtubules (MTs)” value in [5] (100 μM (very high concentration)) is “intact MTs; also recorded: no effect on the microtubule cytoskeleton”. Besides, the “reduction of cytotoxicity on removal of para-methoxy substituent” value in [6] (2a vs. 2c, 2g vs. 2i) is given as 2–3 orders of magnitude. The IC50 in series [4] (64 h treatment, MTT) was determined as 1750 ± 230 nM.
In the case of `COc1ccc2c(c1)CCCN2c1nc(C)nc2ccccc12` [Wang 2013], the GI50 with A549 was 17.8 nM.
For `COc1ccc2c(c1)NC(=O)CN2c1nc(C)nc2c1CCC2` [Banerjee 2021], the IC50 with A549 was 4.5 nM.
In the case of `COc1ccc(N(C)c2nc(C)nc3ccccc23)cc1` [Compound 1, Verubulin], the IC50 in series [1] (A549, 64 h) is 1.1 ± 0.05 nM; in series [2] (VA-13, 64 h), 0.84 ± 0.06 nM; in [3] (MCF7, 64 h), 1.4 ± 0.05 nM; in series [7] it was 3100 ± 1100 nM; in the series on HCT116 cell line (Homo sapiens), 3.2 ± 0.7 nM; with A549, 5 nM. Moreover, the IC50 in series [4] (64 h) is 1 ± 0.02 nM. Further, the “apoptotic cells, early plus late” value in the series on HCT116 cells (2 × IC50, 48 h, HCT116) was 49.3%. The “Early Apop. (Annexin V (+), 7-AAD (−))” value in the series on HCT116 cells (setting [9]) amounted to 16.3%. In addition, the “Late Apop./Dead (Annexin V (+), 7-AAD (+))” value in the series on HCT116 cells (setting [9]) is given as 33%. In series [6], the “selectivity towards tumor cells” value is given as “no selectivity”.
Turning to `COc1ccc(N(C)c2nc(Cl)nc3c2CCCC3)cc1` [Tan 2023], the 50% inhibitory concentration (IC50) in the series with A549 was 4.7 nM.
On to `COc1ccc(N(C)c2nc(Cl)nc3c2CCCC3)cc1` [Compound 2m, 2-Chloro-N-(4-methoxyphenyl)-N-methyl-5,6,7,8-tetrahydroquinazolin-4-amine], for which the half-maximal inhibitory concentration (IC50) is 3 ± 0.2 nM in series [1] (A549, 64 h treatment, MTT); 1.3 ± 0.18 nM in series [2] (VA-13, 64 h treatment, MTT); 3.3 ± 0.14 nM in series [3] (MCF7, 64 h treatment, MTT); 1.8 ± 0.1 nM with HCT116 cell line (setting [8]); 2.7 ± 0.12 nM in series [4] (64 h treatment, MTT). In addition, in the series with HCT116 cells, the “Live (viable cells)” value is given as 52.58%. In the series on MCF7/MCF10A, the “selectivity in the pair MCF7/MCF10A” value is given as “selective”. For the same compound, the “selectivity towards tumor cells” value in [6] is reported as “no selectivity”.
Regarding `COc1ccc2c(c1)CCCN2c1nc(N)nc2c1CCCC2` [Compound 2j, 2-Amino-4-(6-methoxy-3,4-dihydroquinolin-1(2H)-yl)-5,6,7,8-tetrahydroquinazoline], the IC50 turned out to be 50.5 ± 11.1 nM in series [1] (A549, 64 h treatment, MTT); 14.5 ± 3.9 nM in series [2] (VA-13, 64 h treatment, MTT); 40.2 ± 7.8 nM in series [3] (MCF7, 64 h treatment, MTT); 160 ± 30 nM in the series on HCT116 cell line (setting [8]); 28.9 ± 6.6 nM in series [4] (64 h treatment, MTT). Besides, in the series on HCT116 cells (2 × IC50, 48 h, HCT116), the “Early Apop. (Annexin V (+), 7-AAD (−))” value is listed as 56.4%. In addition, the “Live (viable cells)” value in the series on HCT116 cells was 30.81%.
Take `COc1ccc2c(c1)CCCN2c1nc(C)nc2c1CCCC2` [Compound 2e, 4-(6-Methoxy-3,4-dihydroquinolin-1(2H)-yl)-2-methyl-5,6,7,8-tetrahydroquinazoline]: the half-inhibitory concentration (IC50) in series [1] (A549, 64 h treatment, MTT) stood at 13.5 ± 2.2 nM; in [2] (VA-13, 64 h treatment, MTT), 7.1 ± 2 nM; in [3] (MCF7, 64 h treatment, MTT) it was 12.6 ± 2.1 nM; in series [7], 26000 ± 6000 nM; in the series with HCT116 cell line (setting [8]), 22 ± 5 nM; in series [4] (64 h treatment, MTT) it was 8.8 ± 2 nM. For the same compound, in series [5] (10 μM), the “effect on microtubules (MTs)” value is recorded as “full depolymerization of MTs”. In addition, the effect on microtubules result in [5] (5–10 μM) was “pronounced or complete disruption of microtubules”.
